Laboratory results taken from patent publication US20260217698A1 (BEYANG THERAPEUTICS CO., LTD., priority 2022, published 2026).
pIC50: −log10 of the molar value. ≈ marks a conversion by molar mass, not a printed value.

Experiments:
VEGFR1 = target: T1, VEGFR1 (Homo sapiens, UniProt P17948); assay: Kinase inhibition, Mobility Shift Assay/IMAP, VEGFR1; type: biochemical
T1 construct: purchased Invitrogen PR6731B
In short: (§1)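 Substrate conversion (phosphorylated vs non-phosphorylated) read by mobility shift on Caliper EZ Reader II and converted to % inhibition relative to no-enzyme and DMSO controls. IC50 fitted from % inhibition versus log compound concentration.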

VEGFR3 = target: T2, VEGFR3 (Homo sapiens, UniProt P35916); assay: Kinase inhibition, Mobility Shift Assay/IMAP, VEGFR3; type: biochemical
T2 construct: purchased Invitrogen PV4129
T2 sequence (P35916 25-1363): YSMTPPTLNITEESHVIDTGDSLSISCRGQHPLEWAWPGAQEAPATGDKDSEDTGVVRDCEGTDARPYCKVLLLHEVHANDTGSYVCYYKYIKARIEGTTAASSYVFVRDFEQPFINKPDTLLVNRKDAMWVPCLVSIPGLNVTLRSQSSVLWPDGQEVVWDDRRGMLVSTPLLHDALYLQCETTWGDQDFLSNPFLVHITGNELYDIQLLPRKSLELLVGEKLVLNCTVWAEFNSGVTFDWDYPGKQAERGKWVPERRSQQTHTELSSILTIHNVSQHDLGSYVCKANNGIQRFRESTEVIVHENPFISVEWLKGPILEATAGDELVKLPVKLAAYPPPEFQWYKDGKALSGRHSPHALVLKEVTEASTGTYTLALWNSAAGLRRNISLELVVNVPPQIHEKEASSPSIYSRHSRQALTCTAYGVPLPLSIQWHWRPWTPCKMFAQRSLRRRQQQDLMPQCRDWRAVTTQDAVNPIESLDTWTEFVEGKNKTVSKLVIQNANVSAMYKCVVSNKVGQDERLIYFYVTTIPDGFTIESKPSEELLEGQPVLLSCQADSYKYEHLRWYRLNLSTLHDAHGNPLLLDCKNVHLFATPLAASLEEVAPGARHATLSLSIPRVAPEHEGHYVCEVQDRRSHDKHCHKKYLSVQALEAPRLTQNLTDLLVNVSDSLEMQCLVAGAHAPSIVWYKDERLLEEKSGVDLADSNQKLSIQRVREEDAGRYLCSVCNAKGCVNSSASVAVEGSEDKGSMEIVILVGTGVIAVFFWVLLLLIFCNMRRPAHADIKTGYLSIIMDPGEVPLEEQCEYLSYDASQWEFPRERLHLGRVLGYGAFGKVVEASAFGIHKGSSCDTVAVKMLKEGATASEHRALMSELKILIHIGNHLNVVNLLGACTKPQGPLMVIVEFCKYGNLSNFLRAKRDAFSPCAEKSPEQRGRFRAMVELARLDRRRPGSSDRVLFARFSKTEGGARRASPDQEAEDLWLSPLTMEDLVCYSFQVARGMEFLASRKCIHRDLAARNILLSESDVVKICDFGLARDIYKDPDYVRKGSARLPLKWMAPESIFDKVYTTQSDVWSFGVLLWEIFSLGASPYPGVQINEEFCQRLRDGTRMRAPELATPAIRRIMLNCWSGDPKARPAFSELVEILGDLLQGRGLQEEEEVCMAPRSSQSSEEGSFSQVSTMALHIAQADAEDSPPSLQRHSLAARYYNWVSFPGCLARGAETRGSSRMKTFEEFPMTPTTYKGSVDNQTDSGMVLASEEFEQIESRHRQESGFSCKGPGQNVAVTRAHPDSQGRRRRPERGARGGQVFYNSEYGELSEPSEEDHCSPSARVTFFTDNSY
In short: as §1

TIE2 = target: T3, TIE2 (Homo sapiens, UniProt Q02763); assay: Kinase inhibition, Mobility Shift Assay/IMAP, TIE2; type: biochemical
T3 construct: purchased BPS 40270
T3 sequence (Q02763 23-1124): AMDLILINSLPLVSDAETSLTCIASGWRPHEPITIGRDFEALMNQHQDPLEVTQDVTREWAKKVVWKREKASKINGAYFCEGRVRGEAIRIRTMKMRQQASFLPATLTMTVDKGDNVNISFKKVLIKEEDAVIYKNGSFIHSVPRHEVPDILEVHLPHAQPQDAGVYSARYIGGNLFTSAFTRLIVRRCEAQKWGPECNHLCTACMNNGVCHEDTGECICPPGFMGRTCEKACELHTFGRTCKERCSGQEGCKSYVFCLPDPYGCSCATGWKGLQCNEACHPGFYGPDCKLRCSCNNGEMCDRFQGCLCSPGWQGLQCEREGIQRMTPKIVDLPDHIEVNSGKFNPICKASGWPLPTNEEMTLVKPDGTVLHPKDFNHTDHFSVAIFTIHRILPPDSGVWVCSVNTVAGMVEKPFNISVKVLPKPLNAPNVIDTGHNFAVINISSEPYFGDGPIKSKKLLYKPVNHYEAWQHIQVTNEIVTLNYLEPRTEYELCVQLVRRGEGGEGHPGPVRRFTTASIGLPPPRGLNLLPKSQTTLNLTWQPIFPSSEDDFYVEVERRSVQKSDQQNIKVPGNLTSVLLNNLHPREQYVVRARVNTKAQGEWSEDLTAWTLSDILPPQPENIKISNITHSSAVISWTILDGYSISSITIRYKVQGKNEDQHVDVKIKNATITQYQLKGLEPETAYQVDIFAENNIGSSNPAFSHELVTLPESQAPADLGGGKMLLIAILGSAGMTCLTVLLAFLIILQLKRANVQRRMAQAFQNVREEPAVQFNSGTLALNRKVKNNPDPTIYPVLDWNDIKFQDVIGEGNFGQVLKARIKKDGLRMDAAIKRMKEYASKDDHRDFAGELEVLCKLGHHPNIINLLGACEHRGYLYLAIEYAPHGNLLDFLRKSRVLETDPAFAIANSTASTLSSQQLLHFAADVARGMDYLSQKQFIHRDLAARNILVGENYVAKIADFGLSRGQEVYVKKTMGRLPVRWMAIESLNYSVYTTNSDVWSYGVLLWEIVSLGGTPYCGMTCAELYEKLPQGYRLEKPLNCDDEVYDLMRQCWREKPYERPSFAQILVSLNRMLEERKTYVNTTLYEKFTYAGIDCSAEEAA
In short: as §1

melanin = assay: Binding capacity of compounds to melanin; type: in vitro ADME, cuttlefish (Sepia officinalis); details: cuttlefish (Sepia officinalis), melanin suspension (1 mg/mL); 1 mg/mL melanin in PBS pH 7.4, 2 μM compound, 2 h at 37° C.; read-out: Fu % (percentage of free drug)
In short: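 Compound (2 μM final) incubated with washed Sepia melanin (1 mg/mL, PBS pH 7.4) 2 h at 37° C with shaking; PBS with 0.1% BSA served as blank. Supernatants quantified by LC-MS/MS; bound fraction Fb derived from melanin versus blank concentration.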

VEGFR2 = VEGFR2 (Homo sapiens, UniProt P35968); assay: Kinase inhibition, Mobility Shift Assay/IMAP, VEGFR2; type: biochemical; set-up: purchased Carna 08-191
Chain of VEGFR2 (P35968 790-1356 limits assumed): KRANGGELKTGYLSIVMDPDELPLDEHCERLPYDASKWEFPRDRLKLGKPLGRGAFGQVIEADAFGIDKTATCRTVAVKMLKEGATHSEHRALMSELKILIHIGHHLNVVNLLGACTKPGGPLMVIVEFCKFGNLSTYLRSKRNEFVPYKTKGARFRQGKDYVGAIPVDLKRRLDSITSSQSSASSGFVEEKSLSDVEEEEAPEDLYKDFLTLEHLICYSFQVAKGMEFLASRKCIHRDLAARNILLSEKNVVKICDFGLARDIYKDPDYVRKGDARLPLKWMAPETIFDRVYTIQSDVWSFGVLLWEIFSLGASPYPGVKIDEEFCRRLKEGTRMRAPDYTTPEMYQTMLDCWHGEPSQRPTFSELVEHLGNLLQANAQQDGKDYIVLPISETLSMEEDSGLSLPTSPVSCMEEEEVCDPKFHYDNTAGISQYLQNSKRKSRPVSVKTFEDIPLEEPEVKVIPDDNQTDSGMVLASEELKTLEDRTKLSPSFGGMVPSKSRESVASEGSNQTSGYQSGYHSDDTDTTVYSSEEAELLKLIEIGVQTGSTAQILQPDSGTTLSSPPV
In short: as §1

[1] = Solubility test in buffer, LC-MS; type: physicochemical; details: aqueous buffer, thermodynamic from solid, room temperature, shaking 8 h, pH not given (method: pH 2.0, 6.5, 7.4)
In short: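 Compound at 2 mg/mL in buffers of pH 2.0, 6.5 and 7.4, sonicated, shaken 8 h at room temperature, then centrifuged at 13,000 rpm. Supernatant quantified by LC-MS against a 3–5 point calibration.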

T1 sequence (P17948 27-1338): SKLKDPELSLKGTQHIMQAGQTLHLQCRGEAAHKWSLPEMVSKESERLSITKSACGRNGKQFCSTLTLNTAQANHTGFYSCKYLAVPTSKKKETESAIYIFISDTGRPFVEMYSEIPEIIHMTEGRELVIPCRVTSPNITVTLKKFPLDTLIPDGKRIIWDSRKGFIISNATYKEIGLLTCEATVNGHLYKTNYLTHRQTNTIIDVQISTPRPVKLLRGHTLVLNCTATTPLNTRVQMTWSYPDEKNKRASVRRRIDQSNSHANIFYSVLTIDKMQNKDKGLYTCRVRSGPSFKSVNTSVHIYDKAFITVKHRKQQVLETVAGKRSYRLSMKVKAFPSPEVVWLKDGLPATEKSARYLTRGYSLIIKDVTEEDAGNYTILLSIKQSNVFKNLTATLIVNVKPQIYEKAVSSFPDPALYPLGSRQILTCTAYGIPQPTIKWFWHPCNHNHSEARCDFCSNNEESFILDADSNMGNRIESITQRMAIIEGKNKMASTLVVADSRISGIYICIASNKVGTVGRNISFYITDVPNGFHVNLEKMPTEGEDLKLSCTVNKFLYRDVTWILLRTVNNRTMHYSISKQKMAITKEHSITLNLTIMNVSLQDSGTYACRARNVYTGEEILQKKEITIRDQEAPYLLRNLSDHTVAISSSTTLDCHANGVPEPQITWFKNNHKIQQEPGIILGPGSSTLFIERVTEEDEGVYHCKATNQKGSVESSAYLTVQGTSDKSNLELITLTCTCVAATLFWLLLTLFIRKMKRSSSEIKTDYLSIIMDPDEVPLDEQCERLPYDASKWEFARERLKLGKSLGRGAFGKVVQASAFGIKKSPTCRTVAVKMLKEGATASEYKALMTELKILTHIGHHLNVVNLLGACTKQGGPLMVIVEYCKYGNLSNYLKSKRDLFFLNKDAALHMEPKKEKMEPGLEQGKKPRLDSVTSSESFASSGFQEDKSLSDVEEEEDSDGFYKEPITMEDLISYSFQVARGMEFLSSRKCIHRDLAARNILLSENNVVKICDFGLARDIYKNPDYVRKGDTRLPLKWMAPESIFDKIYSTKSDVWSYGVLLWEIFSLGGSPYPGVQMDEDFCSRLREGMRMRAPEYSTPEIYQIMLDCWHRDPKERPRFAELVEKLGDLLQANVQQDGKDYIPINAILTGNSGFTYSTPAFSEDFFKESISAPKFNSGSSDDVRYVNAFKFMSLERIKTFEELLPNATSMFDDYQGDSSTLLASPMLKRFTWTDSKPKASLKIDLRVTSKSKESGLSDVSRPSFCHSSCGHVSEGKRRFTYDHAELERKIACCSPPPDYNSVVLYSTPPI

SMILES | pIC50 (VEGFR1) | pIC50 (VEGFR3) | pIC50 (TIE2) | fraction unbound at 2 h, 2 μM (melanin) | pIC50 (VEGFR2) | solubility at 8 h [1]
NC(=O)c1c(OCc2cc(C(=O)NC3CC3)ccc2F)nsc1NC(=O)NCCCCN1CCCC1 [Compound T087, 3-[[5-(cyclopropylcarbamoyl)-2-fluoro-phenyl]methoxy]-5-(4-pyrrolidin-1-ylbutylcarbamoylamino)isothiazole-4-carboxamide] | 8.95 | 9.10 | 5.85 | 0.0374 | 8.78 | 
NC(=O)c1c(OCc2c(F)ccc(C(=O)NC3CC3)c2F)nsc1NC(=O)NCCCCN1CCCC1 [Compound T124, 3-[[3-(cyclopropylcarbamoyl)-2,6-difluoro-phenyl]methoxy]-5-(4-pyrrolidin-1-ylbutylcarbamoylamino)isothiazole-4-carboxamide] |  |  | 5.54 | 0.0707 | 8.66 | 1950 µg/mL (≈ 3.63 mM)
CN1CCN(CCCNC(=O)Nc2snc(OCc3cc(C(=O)NC4CC4)ccc3F)c2C(N)=O)CC1 [Compound T118, 3-[[5-(cyclopropylcarbamoyl)-2-fluoro-phenyl]methoxy]-5-[3-(4-methylpiperazin-1-yl)propylcarbamoylamino]isothiazole-4-carboxamide] |  |  |  | 0.111 | 8.94 | 2050 µg/mL (≈ 3.85 mM)
NC(=O)c1c(OCc2cc3c(cc2F)CCO3)nsc1NC(=O)NCCCCN1CC[C@@H](O)C1 [Compound T091, 3-[(5-fluoro-2,3-dihydrobenzofuran-6-yl)methoxy]-5-[4-[(3R)-3-hydroxypyrrolidin-1-yl]butylcarbamoylamino] isothiazole-4-carboxamide] | 8.23 | 8.17 |  | 0.0286 | 8.52 | 
CN1CCN(CCCNC(=O)Nc2snc(OCc3cc4c(cc3F)CCO4)c2C(N)=O)CC1 [Compound T101, 3-[(5-fluoro-2,3-dihydrobenzofuran-6-yl)methoxy]-5-[3-(4-methylpiperazin-1-yl)propylcarbamoylamino] isothiazole-4-carboxamide] |  |  | 6.79 | 0.0702 | 8.31 | 
NC(=O)c1c(OCc2cc(C(=O)NC3CC3)ccc2Cl)nsc1NC(=O)NCCCCN1CCCC1 [Compound T123, 3-[[2-chloro-5-(cyclopropylcarbamoyl)phenyl]methoxy]-5-(4-pyrrolidin-1-ylbutylcarbamoylamino)isothiazole-4-carboxamide] |  |  | 6.01 | 0.0298 | 9.20 | 
NC(=O)c1c(OCc2cc(C(=O)NC3CC3)ccc2F)nsc1NC(=O)NCCCN1CC[C@H](F)C1 [Compound T116, 3-[[5-(cyclopropylcarbamoyl)-2-fluoro-phenyl]methoxy]-5-[3-[(3S)-3-fluoropyrrolidin-1-yl]propylcarbamoylamino]isothiazole-4-carboxamide] | 8.92 | 8.32 | 5.63 | 0.0376 | 8.94 | 1090 µg/mL (≈ 2.08 mM)
